Assay results reported in US10111907B2, “Methods of treating ischemia” (FATE THERAPEUTICS, INC., priority 2011, dated 2018).

Tested on: CD34+ cells
Experiment: SDF-1 transwell migration assay
Type: cell-based
Conditions: CD34+ cells treated 4 hours at 37° C. at 10 μM, washed; 50 ng/mL SDF1 in lower chamber, 2.5 hours; compared to DMSO control
Description: Transwell migration assays were performed using 96-well chemotaxis chambers, […] pore size polycarbonate membrane (Corning Inc., Corning, N.Y.) in accordance with manufacturer's instructions. Briefly, CD34^+ cells were then treated for 4 hours at 37° C. with 16,16-dimethyl PGE2 (dmPGE2), dmPGE2 and glucocorticoid, or DMSO control at a concentration of 10 μM in StemSpan® media (StemCell Technology, Vancouver, Canada). The cells were then washed by centrifugation (300 g for 10 minutes) and resuspended in transwell assay buffer (Phenol Red Free RPMI media (Mediatech), 0.5% lipid free BSA (Sigma-Aldrich) at a concentration of 40,000-60,000 cells/75 μl.
To test the duration of the treatment effects, one portion of treated cells was washed by centrifugation (300 g for 10 minutes) and resuspended in StemSpan® media for 4 hours at 37° C. without dmPGE2, glucocorticoids, or DMSO and then washed again by centrifugation (300 g for 10 minutes) and resuspended in transwell assay buffer (Phenol Red Free RPMI media (Mediatech), 0.5% lipid free BSA (Sigma-Aldrich) at a concentration of 40,000-60,000 cells/75 μl.
Seventy-five μl of cell suspension was added to the upper chamber of the plate, while 235 μl of transwell assay media containing 0 or 50 ng/ml SDF 1α (R&D system, Minneapolis, Minn.) was added to the bottom well. […]

SMILES: CCCCC(C)(C)[C@H](O)/C=C/[C@H]1[C@H](O)CC(=O)[C@@H]1C/C=C\CCCC(=O)O [dmPGE2, 16,16-dimethyl PGE2]
- SDF1-driven cell migration (% of cells added): increased SDF1-driven cell migration compared to the DMSO control
